Columns and labels:
[1] = tested on: ERK5; design: method as in Deng et al., 2013; conditions: Data retrieved from the literature; ref Deng et al., 2013; cited from earlier work
[2] = target: T1, recombinant human ERK5 (Homo sapiens, UniProt Q13164); test: TR-FRET (LANCE Ultra) biochemical assay of ERK5 kinase activity; conditions: TR-FRET enzymatic assay, phosphorylated ERK5; read-out: ERK5 IC50
T1 construct: Catalytically active kinase domain of recombinant human ERK5 enzyme was purchased from Carna Biosciences; purchased Carna Biosciences
T1 sequence (Q13164 55-347 limits assumed): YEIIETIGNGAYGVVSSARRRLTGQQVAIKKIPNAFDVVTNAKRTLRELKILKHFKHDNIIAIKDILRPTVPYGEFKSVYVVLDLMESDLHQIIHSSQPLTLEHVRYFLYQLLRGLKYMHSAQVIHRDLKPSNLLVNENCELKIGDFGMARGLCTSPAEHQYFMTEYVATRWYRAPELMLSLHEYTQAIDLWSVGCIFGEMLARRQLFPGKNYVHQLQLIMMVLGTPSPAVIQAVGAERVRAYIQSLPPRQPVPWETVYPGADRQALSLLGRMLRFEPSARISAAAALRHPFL
Experimental: Catalytically active kinase domain of recombinant human ERK5 enzyme was purchased from Carna Biosciences. […] The inhibitory potency of compounds against ERK5 was evaluated using the LANCE Ultra technology from PerkinElmer according to the manufacturer’s instructions. Briefly, 3 µl of different concentrations of ATP and 100 nM ULight-eIF4E-binding protein 1 (Thr37/46) peptide (Perkin-Elmer catalogue No. TRF0128) were incubated in the presence of serially diluted compound or DMSO control at room temperature in 384-well Greiner white polystyrene assay plates. The reaction was initiated by the addition of 3 µl of 10 nM kinase. The assay buffer consisted of 1 mM DTT, 10 mM MgCl2, 1 mM EGTA, 0.01%(v/v) Tween 20 in 50 mM HEPES pH 7.5. After 60 min incubation, the reaction was stopped by the addition of 6 µl stop/detection reagent mixture consisting of 20 mM EDTA and 4 nM Eu-anti-phospho-eIF4E-binding protein 1 (Thr37/46) antibody (PerkinElmer catalogue No. TRF0216) diluted in detection buffer. The plates were incubated for 1 h before the fluorescence was measured at 615 and 665 nm with an excitation wavelength of 320 nm using an EnVision Multilabel Reader from Perkin-Elmer in time-resolved fluorescence resonance energy transfer (TR-FRET) mode. The calculated signal ratio at 665/615 nm is proportional to the kinase activity. The concentration of compound producing 50% inhibition of the kinase activity (IC50) was calculated by using GraphPad Prism to fit the data to a symmetrical sigmoidal curve.

| Compound | IC50 [1] [µM] | IC50 [2] [µM] |
| --- | --- | --- |
| COc1cc(C(=O)N2CCC(N3CCN(C)CC3)CC2)ccc1Nc1ncc2c(n1)N(C1CCCC1)c1ccccc1C(=O)N2C [Compound 1] | 0.082 | – |
| CC(C)NC(=O)n1nc(N)nc1Nc1ccc(Cl)cc1 [Compound 4] | – | > 10 |
| CC(NC(=O)n1nc(N)nc1Nc1ccc(Cl)cc1)c1ccccc1 (stereo not drawn) [Compound 6] | – | > 10 |
